Here are results for eight compounds from patent US8680282B2, “Cyclic inhibitors of carnitine palmitoyltransferase and treating cancer” (University Health Network, priority 2007, dated 2014).

As a reminder, the IC50 is the midpoint of a concentration-inhibition curve.

One assay has as its target T1, human CPT1A (Homo sapiens, UniProt P50416).
T1 construct: made in house; host or cells: Saccharomyces cerevisiae (pESC-trp) or cultured mammalian cells (pCDNA3.1); mitochondrial extract
T1 sequence (P50416 1-773): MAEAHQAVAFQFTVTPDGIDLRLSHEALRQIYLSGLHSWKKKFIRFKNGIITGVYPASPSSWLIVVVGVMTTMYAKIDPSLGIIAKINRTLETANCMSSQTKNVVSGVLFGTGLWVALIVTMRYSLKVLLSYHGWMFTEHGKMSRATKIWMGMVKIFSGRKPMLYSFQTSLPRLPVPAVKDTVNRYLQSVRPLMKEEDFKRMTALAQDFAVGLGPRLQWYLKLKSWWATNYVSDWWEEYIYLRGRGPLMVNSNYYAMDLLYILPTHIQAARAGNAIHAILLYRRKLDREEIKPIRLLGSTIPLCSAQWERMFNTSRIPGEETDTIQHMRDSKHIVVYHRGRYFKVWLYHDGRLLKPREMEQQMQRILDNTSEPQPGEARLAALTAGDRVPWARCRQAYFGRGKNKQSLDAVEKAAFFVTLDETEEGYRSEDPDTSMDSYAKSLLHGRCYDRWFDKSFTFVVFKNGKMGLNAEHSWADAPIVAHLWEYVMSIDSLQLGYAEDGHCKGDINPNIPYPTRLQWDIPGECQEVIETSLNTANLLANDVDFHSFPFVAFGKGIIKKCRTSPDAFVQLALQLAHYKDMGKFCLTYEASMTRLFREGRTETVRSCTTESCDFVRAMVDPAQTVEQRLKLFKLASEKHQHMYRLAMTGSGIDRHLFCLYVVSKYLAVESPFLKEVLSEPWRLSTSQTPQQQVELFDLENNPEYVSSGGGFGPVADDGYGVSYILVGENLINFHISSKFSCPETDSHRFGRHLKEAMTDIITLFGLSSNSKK
Nature of the assay: Human CPT1A LC/MS assay. The format is biochemical. The text has this:
Nucleotide sequences encoding human CPT1 enzymes were individually cloned into the yeast expression vector pESC-trp at the Cla1 (5′ terminus) and Pac1 (3′ terminus) restriction sites by PCR amplification of the open reading frame using oligonucleotide primers designed to encode the wild-type CPT1 protein sequence. Standard molecular biology techniques were used to transform and express the CPT1 proteins in the yeast Saccharomyces cerevisiae. The yeast cells were lysed by enzymatic degradation of the cell wall by Zymolase, and the mitochondria were isolated by standard biochemical techniques. The integrity of the isolated mitochondria was monitored by determining the activity of succinate dehydrogenase in the mitochondrial preparations. The mitochondrial extracts were stored at −80° C. in buffer containing 10 mM HEPES pH 7.4 and 250 mM sucrose.
Human CPT1 (A, B, C) genes were additionally cloned into the pCDNA3.1 vector individually for expression in cultured mammalian cells. Cells expressing the exogenous CPT1A were identified and grown under standard conditions. Mammalian cells were harvested, and mitochondrial extracts prepared using standard biochemical methods. The mitochondrial extracts were stored at −80° C. in buffer containing 10 mM HEPES pH 7.4 and 250 mM sucrose.
Assays were performed in 96-well plate format. Each 100 μL reaction contained 40 mM KCl, 50 mM TrisHCl pH 7.5, and 250 mM mannitol (Assay Buffer), and 1.6 μg protein of an extract, 20 μM palmitoyl-CoA, 50 μM L-carnitine, and 10 ug/mL BSA. Reactions were incubated at room temperature and stopped after 10 minutes by extraction with 200 μL of water saturated n-butanol containing myristoyl carnitine (500 nM) as an internal standard. The samples were thoroughly mixed, and the phases separated by centrifugation. Samples were prepared for analysis with a 10 fold dilution of the n-butanol phase containing the reaction product palmitoyl carnitine into a 50:50 (acetonitrile:water) solvent for analysis. 5 μL of prepared sample was separated on a Phenomenex Jupiter 5μ C4 reverse-phase column using an Agilent 1100 HPLC with a gradient from 50% acetonitrile (0.5% acetic acid) to 100% acetonitrile and quantified by detection with a Bruker Esquire 3000plus mass spectrometer. The abundance of the palmitoyl carnitine product was determined relative to the internal standard and the actual quantity of palmitoyl carnitine can be determined from a standard curve prepared using the n-butanol solution containing the internal standard.
Compounds were evaluated in two formats, a screening format, and a dose response format. The screening format was performed by adding 25 μL compound in 20% DMSO and Assay Buffer to 25 μL of extract containing […] and Assay Buffer, followed by a 10 minute incubation at room temperature. 50 μL of 40 μM palmitoyl-CoA in Assay Buffer was added to the reaction mixture, mixed and incubated for 10 minutes at room temperature. A negative control for activity was also performed where the carnitine was omitted from the reaction. A positive control for activity was also performed by omitting compound from the solution containing 20% DMSO and Assay Buffer. The reaction mixture was extracted and analyzed as described above. The inhibition by compound was determined by comparing the control relative activity to the relative activity observed in wells containing the compound. Relative activity was determined by subtracting the relative intensity (area palmitoyl carnitine/area myristoyl carnitine) observed in the negative control from the relative intensity observed in the experimental well, and dividing by the relative activity observed in the positive control.
[formula] Compound characterization by dose response format was performed using the above described assay conditions and a 16 point compound titration in 2 fold compound dilution steps. The DMSO concentration was kept constant at 20% (v/v) for all compound concentrations.

Another assay concerns COLO-205. Nature of the assay: Cancer cell growth inhibition, SRB assay. The format is cell-based, human. To be noted: COLO-205; at 10 μM; SRB at Day 6; NE = no activity at 10 micromolar. For orientation: In SRB staining, fixed cells bind dye roughly in proportion to their protein.
In another assay the test system is A172. Nature of the assay: Cancer cell growth inhibition, SRB assay. The format is cell-based, human. To be noted: A172; at 10 μM; SRB at Day 6; NE = no activity at 10 micromolar. On the procedure: (§1) Human cancer cells (MCF-7, H358, H460, HCT116 p53^+/+, HCT116 p53^−/−, A172, PC-3, DU-145 and SW626) were maintained in DMEM medium containing 10% Fetal Bovine Serum (FBS) (Invitrogen, Burlington, ON, Canada) and normal cells HMEC, 184A1, NHBE and PrEC were cultured in MEGM, MEGM plus transferring and cholera toxin, BEGM and PrEGM supplemented with various growth factors (Cambrex, Charles city, Iowa, USA), respectively.
(§2) Compounds of Examples S1 to S30, and 4-(carboxymethyl)-4-(6-(3-hexyloxy)phenoxy)hexanoamido)-1,1-dimethylpiperidinium 2,2,2-trifluoroactate (“Compound A”) were tested in this example. Each of the tested compounds was dissolved in DMSO and further diluted in cell culture medium for the experiments performed. Cells were seeded into 96-well plates with 1,500-5,000 cells/well according to cell growth rate. After 24 h, DMEM medium containing 10% FBS were changed to DMEM containing 3% FBS for cancer cells. The compound was added into the cell culture at the indicated concentrations, and the final concentration of DMSO was adjusted to a final concentration of 0.1%. Cell viability was assessed by Sulforhodamine B (SRB) assay at Day 6.
(§3) Sulforhodamine B (SRB) (Sigma, Oakville, ON, Canada) is a water-soluble dye that binds to the basic amino acids of the cellular proteins. Thus, colorimetric measurement of the bound dye provides an estimate of the total protein mass that is related to the cell number. The cells were fixed in situ by gently aspirating off the culture media and adding 50 ul of cold 10% Tri-chloroacetic Acid (TCA) per well and incubated at 4° C. for 30-60 min. The plates were washed five times with water and allowed to air dry for 5 min. 50 ul of 0.4% (w/v) SRB dissolved in 1% (v/v) acetic acid were added into each well, plates were then incubated at RT for 30 min for staining, washed four times with 1% acetic acid to remove any unbound dye and then allowed to air dry for 5 min. Stain was solubilized with 100 ul of 10 mM Tris pH 10.5 per well. Absorbance was read at 570 nm on a spectrophotometer. GI50 (compound concentration required for 50% of growth inhibition) was calculated using GraphPad Prism 4.0 software (GraphPad Software, Inc., San Diego, Calif., USA). Growth inhibition (%) was determined as percentage of cells remaining compared to the DMSO-treated cells as control.

For the next assay, the system named is H358. Nature of the assay: Cancer cell growth inhibition, SRB assay. It counts as cell-based, human. More on the design: Percentage of Growth Inhibition: unit not given here. The following applies: H358; at 10 μM; SRB at Day 6; NE = no activity at 10 micromolar. On the procedure:
as §1, §2, §3

The test system of another assay is MCF-7. Nature of the assay: Cancer cell growth inhibition, SRB assay. It counts as cell-based, human. Also on record: Percentage of Growth Inhibition: scale not given here. To be noted: MCF-7; at 10 μM; SRB at Day 6; NE = no activity at 10 micromolar. The method, then:
as §1, §2, §3

The test system of a further assay is SW626. Nature of the assay: Cancer cell growth inhibition, SRB assay. The format is cell-based, human. More on the design: Percentage of Growth Inhibition: scale not given here. To be noted: SW626; at 10 μM; SRB at Day 6; NE = no activity at 10 micromolar. On the procedure: as §1, §2, §3
The subject of the next assay is SW620. Nature of the assay: Cancer cell growth inhibition, SRB assay. The following applies: SW620; at 10 μM; SRB at Day 6; NE = no activity at 10 micromolar. It counts as cell-based, human. More on the design: Percentage of Growth Inhibition: scale not given here.
For a further assay, the system named is HCT-15. Nature of the assay: Cancer cell growth inhibition, SRB assay. The format is cell-based, human. Also on record: Percentage of Growth Inhibition: scale not given here. To be noted: HCT-15; at 10 μM; SRB at Day 6; NE = no activity at 10 micromolar.
The test system of the next assay is PC-3. Nature of the assay: Cancer cell growth inhibition, SRB assay. It counts as cell-based, human. To be noted: PC-3; at 10 μM; SRB at Day 6; NE = no activity at 10 micromolar. The method, then: as §1, §2, §3
The next assay has as its system SW480. Nature of the assay: Cancer cell growth inhibition, SRB assay. The following applies: SW480; at 10 μM; SRB at Day 6; NE = no activity at 10 micromolar. It counts as cell-based, human.
[1] abbreviates: human CPT1A LC/MS assay, dose response format.

Consider `CCCCCc1ccc(S(=O)(=O)NC2(CC(=O)O)CCC[N+](C)(C)C2)cc1` (stereo not shown) [Example S12, 3-(carboxymethyl)-1,1-dimethyl-3-(4-pentylphenylsulfonamido)-piperidinium 2,2,2-trifluoroacetate], for which the IC50 on human CPT1A (setting [1]) was at most 1 µM. In addition, the “Percentage of Growth Inhibition” value with COLO-205 stood at 0.1281%; in the assay with A172, 0.07689%; with H358, 0.04495; in the assay with MCF-7, 0.2351%; in the assay on SW626 it was 0.00486%.

In turn, `CCCCCCCCc1ccc(NC(=O)NC2(CC(=O)O)CCN(C)C2)cc1` (stereo not shown) [Example S17, 3-(carboxymethyl)-1-methyl-3-(3-(4-octylphenyl)ureido)pyrrolidinium 2,2,2-trifluoroacetate] came in with a concentration for half-maximal inhibition (IC50) against human CPT1A (setting [1]) of 10 to 100 µM.

In turn, `C[N+](C)(C)C[C@H](N)CC(=O)[O-]` [L-aminocarnitine, reference compound] returned an IC50 at human CPT1A (dose response assay, n=17) of 7 ± 2.5 µM.

Consider `CCCCCc1ccc(S(=O)(=O)NC2(CC(=O)O)CCN(C)C2)cc1` (stereo not shown) [Example S19, 3-(carboxymethyl)-1-methyl-3-(4-pentylphenylsulfonamido)-pyrrolidinium 2,2,2-trifluoroacetate], for which, at human CPT1A (setting [1]), the IC50 is 100 to 1000 µM. For the same compound, in the assay on MCF-7, the “Percentage of Growth Inhibition” value is reported as 0.08166%.

Turning to `C[N+]1(C)CCCC(CC(=O)O)(NC(=O)c2ccc(CCc3ccccc3)o2)C1` (stereo not shown) [Example S14, 3-(carboxymethyl)-1,1-dimethyl-3-(5-phenethylfuran-2-carboxamido)piperidinium 2,2,2-trifluoroacetate], the “Percentage of Growth Inhibition” value in the assay on SW620 was determined as 0.04122%; in the assay on H358 it was 0.3919. The IC50 against human CPT1A (setting [1]) lay within 10 to 100 µM.

Take `CCCCCc1ccc(S(=O)(=O)NC2(CC(=O)O)CNC2)cc1` [Example S25, 3-(carboxymethyl)-3-(4-pentylphenylsulfonamido)azetidinium 2,2,2-trifluoroacetate]: the IC50 against human CPT1A (setting [1]) was over 2500 µM. Also, the “Percentage of Growth Inhibition” value in the assay with HCT-15 worked out at 0.00572%; in the assay on H358, 0.05754; with MCF-7, 0.1452%; in the assay on SW626, 0.07606%.

`CN1CCCC(CC(=O)O)(NC(=O)c2ccc(CCc3ccccc3)o2)C1` (stereo not shown) [Example S13, 3-(carboxymethyl)-1-methyl-3-(5-phenethylfuran-2-carboxamido)-piperidinium 2,2,2-trifluoroacetate] yielded an IC50 against human CPT1A (setting [1]) of 100 to 1000 µM.

Regarding `CCCCCCCCc1ccc(NC(=O)NC2(CC(=O)O)CCN(C)CC2)cc1` [Example S1, 4-(carboxymethyl)-1-methyl-4-(3-(4-octylphenyl)ureido)piperidinium 2,2,2-trifluoroacetate], the “Percentage of Growth Inhibition” value is on record as 0.04345% in the assay with SW620; 0.07287% with COLO-205; 0.05911% with HCT-15; 0.1571% with A172; 0.1924% with PC-3; 0.4324 with H358. In addition, the “Percentage of Growth Inhibition” value in the assay with MCF-7 is 0.1204%; in the assay with SW626 it was 0.05142%; in the assay on SW480, 0.08459%.
